According to paper PMC2234460 (The Journal of General Physiology, 2002):

Target: Shaker K+ channel (Shaker B) (Drosophila melanogaster, UniProt P08510, DEL6-46/F425G/K253C/T449F)
Assay: two-electrode voltage clamp in Xenopus oocytes
Format: cell-based

SMILES: CC[N+](CC)(CC)CC [TEA]
- Kd: 200 µM
